Results: US8999456B2, “Method for manufacturing of drug-releasing stent coated with titanium—oxide thin film” (Industry Foundation of Chonnam National University, priority 2009, dated 2015)

Assay: Quantity of drug attached to the stent by UV absorbance and calibration curves
Format: physicochemical
Details: FIG. 7
Protocol: In order to measure the quantity of α-lipoic acid and ReoPro attached to the stent, standard solutions with four concentrations were prepared for each drug. Absorbance was measured using a UV spectrometer (Shimadzu 1601, Japan) at 330 nm for α-lipoic acid and at 278 nm for ReoPro. Thus, calibration curves were drawn for α-lipoic acid and ReoPro. Then, in order to measure the quantity of the drugs attached to the stent, each 500 μL of the reaction solution was taken before and after the reaction, which were diluted by mixing with triple distilled water (2.5 mL) and subjected to absorbance measurement at 278 nm and 330 nm, respectively. The measurement result was compared with the calibration curves to determine the quantity of α-lipoic acid and ReoPro attached to the stent.
After binding a drug on the surface of the stent that had been modified with hydroxyl groups, the amount of the bound drug was calculated using the calibration curves. […] Therefore, it can be seen that a 10 to 50 W is ideal for modification of the titanium dioxide thin film using water.

O=C(O)CCCCC1CCSS1 (stereo not drawn) [α-lipoic acid]
quantity of attached α-lipoic acid (discharge power applied for the surface modification 20 W): 250 µg | quantity of attached α-lipoic acid (surface modification at 60 W): decreased remarkably | quantity of attached α-lipoic acid (thin films modified at 10, 30, 40 and 50 W): about 150 μg
